In ChEMBL document CHEMBL5233281, “Design, synthesis and biological evaluation of novel 1,3,4,9-tetrahydropyrano[3,4-b]indoles as potential treatment of triple negative breast cancer by suppressing PI3K/AKT/mTOR pathway” (Bioorg Med Chem, 2021):
pIC50: −log10 of the molar value. The source made the active and inactive calls. The calls are words filed in the database; no cut-off is given here.

Columns and labels:
[1] = system: A549; assay: Antiproliferative activity against human A549 cells assessed as inhibition of cell growth incubated for 72 hrs by CCK8 assay; type: functional, cell-based; settings: A549, 72 h
[2] = system: MDA-MB-231; assay: Antiproliferative activity against human MDA-MB-231 cells assessed as inhibition of cell growth incubated for 72 hrs by CCK8 assay; type: functional, cell-based; settings: MDA-MB-231, 72 h
[3] = system: MDA-MB-231; assay: Induction of cell cycle arrest in human MDA-MB-231 cells assessed as downregulation of Cyclin D1 protein expression at 1 to 4 uM incubated for 48 hrs by western blot analysis; type: functional, cell-based; settings: dose 1-4 µM
[4] = system: MDA-MB-231; assay: Induction of cell cycle arrest in human MDA-MB-231 cells assessed as upregulation of p21 protein expression at 1 to 4 uM incubated for 48 hrs by western blot analysis; type: functional, cell-based; settings: dose 1-4 µM
[5] = system: MDA-MB-231; assay: Induction of apoptosis in human MDA-MB-231 cells assessed as increase in apoptotic cells at 2 uM incubated for 48 hrs by AnnexinV-FITC/PI staining based flow cytometry (reference value: 5.24%); type: functional
[6] = system: MDA-MB-231; assay: Induction of apoptosis in human MDA-MB-231 cells assessed as increase in apoptotic cells at 4 uM incubated for 48 hrs by AnnexinV-FITC/PI staining based flow cytometry (reference value: 5.24%); type: functional
[7] = system: MDA-MB-231; assay: Induction of apoptosis in human MDA-MB-231 cells assessed as increase in apoptotic cells at 2 uM incubated for 24 hrs by AnnexinV-FITC/PI staining based flow cytometry (reference value: 5.24%); type: functional
[8] = system: MDA-MB-231; assay: Induction of apoptosis in human MDA-MB-231 cells assessed as increase in apoptotic cells at 2 uM incubated for 72 hrs by AnnexinV-FITC/PI staining based flow cytometry (reference value: 5.24%); type: functional
[9] = system: MDA-MB-231; assay: Induction of apoptosis in human MDA-MB-231 cells assessed as decrease in Bcl-2 protein expression measured after 48 hrs by western blot analysis; type: functional, cell-based; settings: dose 1-4 µM
[10] = system: MDA-MB-231; assay: Induction of apoptosis in human MDA-MB-231 cells assessed as increase in ratio of Bax to Bcl-2 protein expression measured after 48 hrs by western blot analysis; type: functional, cell-based; settings: dose 1-4 µM
[11] = system: MDA-MB-231; assay: Induction of reactive oxygen species generation in human MDA-MB-231 cells at 2 uM incubated for 24 hrs by DCFH-DA staining based flow cytometry relative to control; type: functional
[12] = system: MDA-MB-231; assay: Downregulation of PI3K protein expression in human MDA-MB-231 cells incubated for 48 hrs by western blot analysis; type: functional, cell-based; settings: dose 1-4 µM
[13] = system: MDA-MB-231; assay: Downregulation of mTOR protein expression in human MDA-MB-231 cells at 2 uM incubated for 72 hrs in presence of IGF-1 by western blot analysis; type: functional, cell-based
[14] = Inhibition of PI3K/Akt/mTOR signaling in human MDA-MB-231 cells assessed as reduction in mTOR phosphorylation at Ser2481 residue at 2 uM incubated for 72 hrs by western blot analysis; type: cell-based

pIC50 [1]: 4.83
pIC50 [2]: 5.64
SMILES: Fc1cc(F)cc(C2OCCc3c2[nH]c2ccccc32)c1 (centres undefined)
Activity [3]: Active
Activity [4]: Active
Activity [5]: 22.17%
Activity [6]: 37.86%
Activity [7]: 13.14%
Activity [8]: 31.34%
Activity [9]: Dose-Dependent Effect
Activity [10]: Dose-Dependent Effect
fold change (FC) [11]: 1.73
inhibition [12]: Dose-Dependent Effect
inhibition [13]: inactive
inhibition [14]: inactive
